# Patent US20250171459A1, “2-METHYL-4',5'-DIHYDROSPIRO[PIPERIDINE-4,7'-THIENO[2,3-C]PYRAN] DERIVATIVES AS INHIBITORS OF APOL1 AND METHODS OF USING SAME” (Vertex Pharmaceuticals Incorporated, priority 2022, published 2025)
# Biological target: T1, APOL1 (Homo sapiens, UniProt O14791)
# T1 sequence (O14791 1-398 S342G/I384M): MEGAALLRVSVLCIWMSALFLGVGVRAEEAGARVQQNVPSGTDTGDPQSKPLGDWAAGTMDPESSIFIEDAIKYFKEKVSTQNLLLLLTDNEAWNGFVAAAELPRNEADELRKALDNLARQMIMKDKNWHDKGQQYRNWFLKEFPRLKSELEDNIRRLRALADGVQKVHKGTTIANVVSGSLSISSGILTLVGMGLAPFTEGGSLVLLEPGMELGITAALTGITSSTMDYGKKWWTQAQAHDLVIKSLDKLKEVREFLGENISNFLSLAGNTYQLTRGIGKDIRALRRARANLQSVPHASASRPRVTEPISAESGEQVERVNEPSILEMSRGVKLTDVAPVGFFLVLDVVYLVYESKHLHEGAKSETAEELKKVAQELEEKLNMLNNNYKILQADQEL
# Assay: MultiTox-Fluor Multiplex Cytotoxicity Assay in tet-inducible APOL1 T-REx-HEK293 cells (cell rescue, ratio of dead to live cells)
# Format: cell-based
# Settings: tet-inducible transgenic APOL1 T-REx-HEK293 cell lines, 50 ng/mL tet, 24 hours; read-out: IP50 (i.e., IC50 for cell proliferation)
# Outline: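 T-REx-HEK293 cells with tet-inducible APOL1 were treated with compound (10 μM top, 10-point 3-fold dilution, duplicate) plus 50 ng/mL tetracycline for 24 h at 37° C, in DMEM with 2% tet-free FBS. MultiTox-Fluor protease signals gave a dead/live ratio, normalized to no tet (100% viability) and tet alone (0%).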
row,Structure (SMILES),IC50 [nM]
1,CCc1cc2c(s1)CCO[C@@]21CCN(Cc2cn(Cc3cnn(C)c3)nn2)[C@@H](C)C1 [Compound 49],< 100
2,CCc1cc2c(s1)CCO[C@@]21CCN(Cc2cn(C(C)(C)CCS(C)(=O)=O)nn2)[C@@H](C)C1 [Compound 192],500 to 1000
3,CCc1cc2c(s1)CCO[C@@]21CCN(CC2CN(C(=O)c3cn[nH]c3)C2)[C@@H](C)C1 [Compound 433],< 100
4,C[C@H]1C[C@@]2(CCN1CC1CCN(S(C)(=O)=O)CC1)OCCc1c2sc(Cl)c1CO [Compound 748],100 to 500
5,CCc1cc2c(s1)CCO[C@@]21CCN(C[C@H]2C[C@@H](NC(=O)C(O)CO)C2)[C@@H](C)C1 (some centres unmarked) [Compound 365],100 to 500
6,CCc1cc2c(s1)CCOC21CCN(Cc2cn(CC3CCOCC3)nn2)CC1 [Compound 1113],500 to 1000
7,CCc1cc2c(s1)CCO[C@@]21CCN(C[C@H]2C[C@@H](NC(=O)C(C)(C)C#N)C2)[C@@H](C)C1 [Compound 336],100 to 500
8,CCc1cc2c(s1)CCO[C@@]21CCN(Cc2cnc(N[C@@H](C)C(=O)NC)nc2)[C@@H](C)C1 [Compound 225],< 100
9,C[C@H]1C[C@@]2(CCN1C[C@H]1C[C@@H](NC(=O)C3CCC3)C1)OCCc1cc(CC(F)F)sc12 [Compound 557],< 100
10,"COC(=O)c1c(C(F)(F)F)sc2c1CCO[C@@]21CCN(Cc2cn(CCS(C)(=O)=O)nn2)[C@@H](C)C1 [Compound 1006, Methyl (2′S,7R)-2′-methyl-1′-[[1-(2-methylsulfonylethyl)triazol-4-yl]methyl]-2-(trifluoromethyl)spiro[4,5-dihydrothieno[2,3-c]pyran-7,4′-piperidine]-3-carboxylate]",100 to 500
11,C[C@H]1C[C@@]2(CCN1Cc1cccn(C)c1=O)OCCc1cc(CC(F)F)sc12 [Compound 574],500 to 1000
12,CCc1cc2c(s1)CCO[C@@]21CCN(Cc2cn(Cc3c(C)cc(C)nc3O)nn2)[C@@H](C)C1 [Compound 66],100 to 500
13,CCc1cc2c(s1)CCO[C@@]21CCN(Cc2cn(C3(CO)CC3)nn2)[C@@H](C)C1 [Compound 127],500 to 1000
14,CCc1cc2c(s1)CCO[C@@]21CCN(CC2CN(C(=O)C(C)S(C)(=O)=O)C2)[C@@H](C)C1 (some centres unmarked) [Compound 432],< 100
15,C[C@H]1C[C@@]2(CCN1Cc1ccccn1)OCCc1cc(Cl)sc12 [Compound 668],500 to 1000
16,C[C@H]1C[C@@]2(CCN1Cc1cn(C)nn1)OCCc1cc(CC(F)F)sc12 [Compound 566],< 100
17,C[C@H]1C[C@@]2(CCN1Cc1cnccn1)OCCc1c2sc(Cl)c1CO [Compound 737],500 to 1000
18,COCCc1ncc(CN2CC[C@]3(C[C@@H]2C)OCCc2cc(Cl)sc23)cn1 [Compound 640],100 to 500
19,Cc1cc2c(s1)[C@]1(CCN(Cc3cnc(NC(C)(C)CO)nc3)[C@@H](C)C1)OCC2 [Compound 1025],< 100
20,C[C@H]1C[C@@]2(CCN1Cc1cccnc1)OCCc1cc(Cl)sc12 [Compound 639],< 100

row,Structure (SMILES),IC50 [nM]
1,C[C@H]1C[C@@]2(CCN1Cc1cnn(CC(O)C3(O)CCCC3)c1)OCCc1c2sc(C(F)(F)F)c1CO (some centres unmarked) [Compound 955],< 100
2,CCc1cc2c(s1)CCO[C@@]21CCN(Cc2cnc(N[C@H]3COC[C@@H]3O)nc2)[C@@H](C)C1 [Compound 203],< 100
3,CCC1Cc2sc(Cl)cc2C2(CCN(Cc3cnn(C)c3)[C@@H](C)C2)O1 (some centres unmarked) [Compound 533],500 to 1000
4,C[C@H]1C[C@@]2(CCN1C[C@@H](O)CO)OCCc1cc(CC(F)F)sc12 [Compound 598],100 to 500
5,CCc1cc2c(s1)CCO[C@@]21CCN(Cc2cn(Cc3nnc(C)o3)nn2)[C@@H](C)C1 [Compound 176],100 to 500
6,"CCc1cc2c(s1)CCO[C@@]21CCN(Cc2cn(CCS(=O)(=O)NCCO)nn2)[C@@H](C)C1 [Compound 6, 2-[4-[[(2′S,4R)-2-ethyl-2′-methyl-spiro[6,7-dihydrothieno[3,2-c]pyran-4,4′-piperidine]-1′-yl]methyl]triazol-1-yl]-N-(2-hydroxyethyl)ethanesulfonamide]",< 100
7,COc1cc(CN2CC[C@]3(C[C@@H]2C)OCCc2c3sc(Cl)c2CO)ccc1OCC(N)=O [Compound 742],< 100
8,CCc1cc2c(s1)CCOC21CCN(Cc2cn(CCC(=O)NC)nn2)CC1 [Compound 1120],500 to 1000
9,CCc1cc2c(s1)CCO[C@@]21CCN(C[C@H]2C[C@@H](NS(=O)(=O)c3ccccc3Cl)C2)[C@@H](C)C1 [Compound 409],< 100
10,CCc1cc2c(s1)CCO[C@@]21CCN(C[C@H]2C[C@@H](NS(=O)(=O)C3COC3)C2)[C@@H](C)C1 [Compound 401],< 100
11,CCc1cc2c(s1)CCO[C@@]21CCN(C[C@H]2C[C@@H](NS(=O)(=O)c3cncc(Cl)c3)C2)[C@@H](C)C1 [Compound 407],< 100
12,CCc1cc2c(s1)CCO[C@@]21CCN(Cc2cn(CC(=O)N3CCOCC3)nn2)[C@@H](C)C1 [Compound 90],100 to 500
13,CCc1cc2c(s1)CCOC21CCN(Cc2ccc(C(=O)NC3CC(C)(O)C3)nc2)CC1 (centres unmarked) [Compound 1064],100 to 500
14,"C[C@H]1C[C@@]2(CCN1Cc1cn(C(C)(C)CO)nn1)OCCc1c2sc(C(F)(F)F)c1CO [Compound 1000, 2-[4-[[(2′S, 7R)-3-(hydroxymethyl)-2′-methyl-2-(trifluoromethyl)spiro[4,5-dihydrothieno[2,3-c]pyran-7,4′-piperidine]-1′-yl]methyl]triazol-1-yl]-2-methyl-propan-1-ol]",500 to 1000
15,C[C@H]1C[C@@]2(CCN1CC1CCN(S(C)(=O)=O)CC1)OCCc1cc(Cl)sc12 [Compound 670],100 to 500
16,C[C@H]1C[C@@]2(CCN1CC1CNC(=O)C1)OCCc1cc(CC(F)F)sc12 (some centres unmarked) [Compound 621],< 100
17,CCc1cc2c(s1)CCO[C@@]21CCN(CC2CN(C(=O)c3ccnn3C)C2)[C@@H](C)C1 [Compound 427],< 100
18,CC(C)NC(=O)Cn1cc(CN2CC[C@]3(C[C@@H]2C)OCCc2c3sc(C(F)(F)F)c2CO)cn1 [Compound 909],< 100
19,"Cc1cc2c(s1)CCO[C@@]21CCN(C2COCC2O)[C@@H](C)C1 (single isomer, unassigned) [Compound 499]",< 100
20,C[C@H]1C[C@@]2(CCN1Cc1cnn(CC(C)(CO)CO)c1)OC[C@](O)(C(F)F)c1cc(Cl)sc12 [Compound 833],< 100

row,Structure (SMILES),IC50 [nM]
1,C[C@H]1C[C@@]2(CCN1Cc1ncc(NC(C)(C)CO)cn1)OCCc1cc(CC(F)F)sc12 [Compound 560],< 100
2,CCc1cc2c(s1)CCO[C@@]21CCN(CC2CN(C(=O)c3ccc(=O)oc3)C2)[C@@H](C)C1 [Compound 463],100 to 500
3,CCc1cc2c(s1)CCOC21CCN(Cc2cn(C3CS(=O)(=O)C3)nn2)CC1 [Compound 1183],500 to 1000
4,CCc1cc2c(s1)CCO[C@@]21CCN(C[C@H]2C[C@@H](NC(=O)CC3CC(F)(F)C3)C2)[C@@H](C)C1 [Compound 338],< 100
5,CCc1cc2c(s1)CCOC21CCN(Cc2cnc(NCCn3cccn3)nc2)CC1 [Compound 1078],100 to 500
6,C[C@H]1C[C@@]2(CCN1Cc1cnn(CC(C)(O)C(F)F)c1)OCCc1c2sc(C(F)(F)F)c1CO (some centres unmarked) [Compound 953],< 100
7,CCc1cc2c(s1)CCO[C@@]21CCN(Cc2cnc(NCCN(CCO)CCO)nc2)[C@@H](C)C1 [Compound 230],< 100
8,CCc1cc2c(s1)CCO[C@@]21CCN(C[C@H]2C[C@@H](NC(=O)C(C)(C)N)C2)[C@@H](C)C1 [Compound 360],100 to 500
9,CCc1cc2c(s1)CCO[C@@]21CCN(C[C@H]2C[C@@H](NC(=O)c3ccnc(C)n3)C2)[C@@H](C)C1 [Compound 324],< 100
10,COc1ccc(CN2CC[C@]3(C[C@@H]2C)OCCc2cc(Cl)sc23)cc1OCC(N)=O [Compound 657],< 100
11,"C[C@H]1C[C@@]2(CCN1Cc1cnn(CCS(C)(=O)=O)c1)OCCc1cc(Cl)sc12 [Compound 697, (2′S, 7R)-2-chloro-2′-methyl-1′-[[1-(2-methylsulfonylethyl)pyrazol-4-yl]methyl]spiro[4,5-dihydrothieno[2,3-c]pyran-7,4′-piperidine]]",< 100
12,C[C@H]1C[C@@]2(CCN1Cc1cn(CC(C)(CO)CO)nn1)OC[C@](O)(C(F)F)c1cc(Cl)sc12 [Compound 840],< 100
13,C[C@H]1C[C@@]2(CCN1Cc1cn(C3CCOCC3)nn1)OC[C@](O)(C(F)F)c1cc(Cl)sc12 [Compound 841],< 100
14,CCc1cc2c(s1)CCO[C@@]21CCN(Cc2cn(Cc3ncccn3)nn2)[C@@H](C)C1 [Compound 51],100 to 500
15,"CS(=O)(=O)CCn1cc(CN2CCC3(CC2)OCCc2cc(Cl)sc23)cn1 [Compound 1169, 2′-chloro-1-((1-(2-(methylsulfonyl)ethyl)-1H-pyrazol-4-yl)methyl)-4′,5′-dihydrospiro[piperidine-4,7′-thieno[2,3-c]pyran]]",100 to 500
16,CCc1cc2c(s1)CCO[C@@]21CCN(CC2CN(C(=O)C3CCNC3=O)C2)[C@@H](C)C1 (some centres unmarked) [Compound 484],< 100
17,C[C@H]1C[C@@]2(CCN1Cc1cnn(CC(C)(C)O)c1)OCCc1c2sc(C(F)(F)F)c1CO [Compound 895],< 100
18,CCc1cc2c(s1)CCO[C@@]21CCN(Cc2cn(CCSCC(C)(C)O)nn2)[C@@H](C)C1 [Compound 24],< 100
19,CCc1cc2c(s1)CCO[C@@]21CCN(Cc2cn(C(C)(C)C(=O)N3CCOCC3)nn2)[C@@H](C)C1 [Compound 164],500 to 1000
